Test results: PMC9699089 (Pathogens, 2022)
Where two headings read alike, the source gives them in different places.

Experiments:
[1] = tested on: Pf8 (DNA, G4) GGGTTCAGGGTTCAGGGTTCAGGG; experiment: native ESI-MS; conditions: 1 mM KCl, 100 mM TMAA, 10 µM oligonucleotide, 20 µM ligand
[2] = tested on: 24TTG (DNA, G4) TTGGGTTAGGGTTAGGGTTAGGGA; experiment: native ESI-MS; conditions: 1 mM KCl, 100 mM TMAA, 10 µM oligonucleotide; for Kd1: 20 µM ligand
[3] = tested on: FdxT (DNA, hairpin, hexaethyleneglycol linker between position 10 and 11) TATAGCTATATATAGCTATA; experiment: FRET melting; conditions: 10 mM KCl, 90 mM LiCl, 10 mM lithium cacodylate pH 7.2, 0.2 µM oligonucleotide
[4] = tested on: Pf1 (DNA, G4) GGGTTTAGGGTTTAGGGTTTAGGG; experiment: native ESI-MS; conditions: 1 mM KCl, 100 mM TMAA, 10 µM oligonucleotide; for Kd1: 20 µM ligand
[5] = tested on: FPf1T (DNA, G4) GGGTTTAGGGTTTAGGGTTTAGGG; experiment: FRET melting; conditions: 10 mM KCl, 90 mM LiCl; 10 mM lithium cacodylate pH 7.2; 0.2 µM oligonucleotide, 2 µM compound
[6] = tested on: FPf8T (DNA, G4) GGGTTCAGGGTTCAGGGTTCAGGG; experiment: FRET melting; conditions: 10 mM KCl, 90 mM LiCl; 10 mM lithium cacodylate pH 7.2; 0.2 µM oligonucleotide, 2 µM compound
[7] = tested on: FtrypBT (FEBR1T) (DNA, G4) GGGCAGGGGGTGATGGGGAGGAGCCAGGG; experiment: FRET melting; conditions: 10 mM KCl, 90 mM LiCl; 10 mM lithium cacodylate pH 7.2; 0.2 µM oligonucleotide, 2 µM compound
[8] = tested on: F21T (DNA, G4) GGGTTAGGGTTAGGGTTAGGG; experiment: FRET melting; conditions: 10 mM KCl, 90 mM LiCl, 10 mM lithium cacodylate pH 7.2, 0.2 µM oligonucleotide
[9] = tested on: 24nonG4 (DNA, single strand) TGGGATGCGACAGAGAGGACGGGA; experiment: native ESI-MS; conditions: 1 mM KCl; 100 mM TMAA; 10 µM oligonucleotide; no binding detected at 20 µM ligand
[10] = tested on: DK66 (DNA, duplex) CGCGAATTCGCG; experiment: native ESI-MS; conditions: 1 mM KCl; 100 mM TMAA; 10 µM oligonucleotide; no binding detected at 20 µM ligand
[11] = tested on: Plasmodium falciparum CQ-resistant strain W2; experiment: In vitro antiplasmodial activity, SYBR Green I fluorescence-based method, strain W2; format: cell-based; conditions: read-out: P. falciparum Strains IC50 Values W2
Procedure: (§1) The in vitro antiplasmodial activities were tested over concentrations ranging from 39 nM to 40 µM against culture-adapted Plasmodium falciparum reference strains 3D7 and W2. […] These two strains are obtained from the collection of the National Museum of Natural History (Paris, France). The parasites were cultivated in RPMI medium (Sigma Aldrich, Lyon, France) supplemented with 0.5% Albumax I (Life Technologies Corporation, Paisley, UK), hypoxanthine (Sigma Aldrich), and gentamicin (Sigma Aldrich) with human erythrocytes and were incubated at 37 °C in a candle jar, as described previously. The P. falciparum drug susceptibility test was carried out in 96-well flat bottom sterile plates in a final volume of 250 µL. After 48 h incubation period with the drugs, quantities of DNA in treated and control cultures of parasites in human erythrocytes were quantified using the SYBR Green I (Sigma Aldrich) fluorescence-based method. Briefly, after incubation, plates were frozen at -20 °C until use. Plates were then thawed for 2 h at room temperature, and 100 µL of each homogenized culture was transferred to a well of a 96-well flat bottom sterile black plate (Nunc, Inc.) that contained 100 µL of the SYBR Green I lysis buffer (2xSYBR Green, 20 mM Tris base pH 7.5, 5 mM EDTA, 0.008% w/v saponin, 0.08% w/v Triton X-100). […] Plates were incubated for 1 h at room temperature and then read on a fluorescence plate reader (Tecan, Austria) using excitation and emission wavelengths of 485 and 535 nm, respectively.

[12] = tested on: Plasmodium falciparum CQ-sensitive strain 3D7; experiment: In vitro antiplasmodial activity, SYBR Green I fluorescence-based method, strain 3D7; format: cell-based; conditions: read-out: P. falciparum Strains IC50 Values 3D7
Procedure: as §1

[13] = tested on: Plasmodium telomeric sequence FPf1T G-quadruplex; experiment: FRET melting assay, FPf1T; format: binding, Plasmodium falciparum; conditions: oligonucleotide 0.2 μM, K+ conditions
[14] = tested on: Plasmodium telomeric sequence FPf8T G-quadruplex; experiment: FRET melting assay, FPf8T; format: binding, Plasmodium falciparum; conditions: oligonucleotide 0.2 μM, K+ conditions
[15] = tested on: human telomeric sequence F21T G-quadruplex; experiment: FRET melting assay, F21T; format: binding; conditions: oligonucleotide 0.2 μM, K+ conditions
[16] = tested on: L. donovani (MHOM/IN/00/DEVI) promastigotes; experiment: In vitro antileishmanial activity on promastigotes, MTT assay; format: cell-based; conditions: Leishmania donovani, 72 h incubation, mean +/- SD of three independent experiments
Procedure: L. donovani (MHOM/IN/00/DEVI) used in this study was provided by the CNR Leishmania (Montpellier, France). The effects of the tested compounds on the growth of L. donovani (MHOM/IN/00/DEVI) promastigotes were assessed by MTT assay. Briefly, promastigotes in log-phase in Schneider’s medium supplemented with 20% fetal calf serum (FCS), 2 mM L-glutamine and antibiotics (100 U/mL penicillin and 100 µg/mL streptomycin), were incubated at an average density of 10^6 parasites/mL in sterile 96-well plates with various concentrations of compounds previously dissolved in DMSO (final concentration less than 0.5% v/v), in duplicate. […] Duplicate assays were performed for each sample. After the 72 h incubation period at 27 °C, parasite metabolic activity was determined. Each well was microscopically examined for precipitate formation. To each well was added 10 µL of 10 mg/mL MTT [3-(4,5-dimethylthiazol-2-yl)-2,5-diphenyltetrazolium bromide)] solution followed by 4 h incubation time. The enzyme reaction was stopped by addition of 100 µL of 50% isopropanol/10% sodium dodecyl sulfate. Plates were vigorously shaken (300 rpm) for 10 min, and the absorbance was measured at 570 nm with 630 nm as reference wavelength in a BIOTEK ELx808 Absorbance Microplate Reader (Agilent Technologies, Les Ulis, France). […] IC50 of the parasite’s growth (half maximal inhibitory concentration or IC50 values) were then calculated from the obtained experimental results using a previously described regression program. IC50 values were calculated from three independent experiments.

[17] = tested on: T. brucei brucei AnTat 1.9; experiment: In vitro antitrypanosomal activity, Alamar Blue assay; format: cell-based, Trypanosoma brucei brucei
Procedure: The effects of the tested compounds on the growth of T. brucei brucei were assessed using an Alamar Blue® assay described by Räz et al. T. brucei brucei AnTat 1.9 ([…], Belgium) was cultured in MEM with Earle's salts, supplemented according to the protocol of Baltz et al. […] All doses were tested in duplicate. Appropriate controls treated with solvents 0.9% NaCl or DMSO or with suramin, pentamidine, eflornithine, and fexinidazole (reference drugs purchased from Sigma Aldrich and Fluorochem, UK) were added to each set of experiments. After 69 h incubation period at 37 °C, 10 μL of the viability marker Alamar Blue (Fisher) was added to each well, and the plates were incubated for 5 h. The plates were read in a PerkinElmer ENSPIRE (Germany) microplate reader using an excitation wavelength of 530 nm and an emission wavelength of 590 nm.

human HepG2 cells = experiment: Cytotoxicity evaluation, MTT assay; format: cell-based; conditions: HepG2 cells; 72 h; mean +/- SD of three independent experiments
Procedure: These cells are a commonly used human hepatocarcinoma-derived cell line that has characteristics similar to those of primary hepatocytes. These cells express many hepatocyte-specific metabolic enzymes, thus enabling the cytotoxicity of tested product metabolites to be evaluated. […] Duplicate assays were performed for each sample. Each well was microscopically examined for precipitate formation before the medium was aspirated from the wells. After aspiration, 100 µL of MTT solution (0.5 mg/mL in medium without FCS) were then added to each well. […] The MTT solution was removed, and DMSO (100 µL) was added to dissolve the resulting blue formazan crystals. Plates were shaken vigorously (300 rpm) for 5 min. The absorbance was measured at 570 nm with 630 nm as reference wavelength in a BIO-TEK ELx808 Absorbance Microplate Reader. DMSO was used as blank and doxorubicin (Sigma Aldrich) as positive control. Cell viability was calculated as percentage of control (cells incubated without compound). The CC50 was determined from the dose-response curve using TableCurve 2D V5.0 software (Systat Software, Palo Alto, CA, USA).

[18] = tested on: Trypanosoma 9 and 11 chromosomic sequence FTrypBT (FEBR1T) G-quadruplex; experiment: FRET melting assay, FtrypBT; format: binding, Trypanosoma brucei brucei; conditions: tested at 0.5 μM, oligonucleotide 0.2 μM, K+ conditions
Procedure: These were performed with dual-labeled oligonucleotides mimicking the Plasmodium telomeric sequences FPf1T [FAM-5′(GGGTTTA)3-GGG3′-TAMRA] and FPf8T [FAM-5′(GGGTTCA)3GGG3′-TAMRA], the Trypanosoma 9 and 11 chromosomic sequence FTrypBT (also named FEBR1T) [FAM-5′[…]3′-TAMRA], the human telomeric sequence F21T [FAM-(GGGTTA)3-GGG3′-TAMRA] and the human duplex sequence FdxT [FAM5′-[…]-hexaethyleneglycol-[…]3′-TAMRA] [27, 31, 47]. The oligonucleotides were pre-folded in 10 mM lithium cacodylate buffer (pH 7.2), with 10 mM KCl and 90 mM LiCl (K^+ condition). The FAM emissions were recorded at 516 nm using a 492-nm excitation wavelength in the absence and presence of a single compound as a function of temperature (25 to 95 °C) in 96-well microplates using a Stratagene MX3000P real-time PCR device at a rate of 1 °C∙min-1. Data were normalized between 0 and 1, and the required temperature for half-denaturation of oligonucleotides corresponding to the emission value of 0.5 was taken as the Tm. Each experiment was performed in duplicate with 0.2 µM of labeled oligonucleotide and 2 µM of compound under K^+ condition. For each compound, three independent experiments were carried out.

[19] = tested on: human duplex sequence FdxT; experiment: FRET melting assay, duplex control FdxT; format: binding; conditions: tested at 0.5 μM, oligonucleotide 0.2 μM, K+ conditions
[20] = no binding detected at 20 µM ligand

## CN(C)CCCCNCc1cc(-c2ccccc2)c2ccc3c(-c4ccccc4)cc(CNCCCCN(C)C)nc3c2n1
[1]; site 1 of 2 (Kd2 50 µM)
  Kd1: 3 µM
[2]; site 1 of 2 (Kd2 28 µM)
  Kd1: 44 µM

## c1ccc(-c2cc(CNCCCN3CCCC3)nc3c2ccc2c(-c4ccccc4)cc(CNCCCN4CCCC4)nc23)cc1
[3]; 2 µM compound
  ΔTm: 0.7 ± 0.2 °C
[4]; site 1 of 2 (Kd2 37 µM)
  Kd1: 10 µM
[1]; site 1 of 2 (Kd2 59 µM)
  Kd1: 2 µM
[2]; site 1 of 2 (Kd2 18 µM)
  Kd1: 34 µM

## c1ccc(-c2cc(CNCCc3ccccn3)nc3c2ccc2c(-c4ccccc4)cc(CNCCc4ccccn4)nc23)cc1
[5]
  ΔTm: 1.3 ± 0.2 °C
[6]
  ΔTm: 1.0 ± 0.2 °C
[7]
  ΔTm: 1.8 ± 0.6 °C
[8]; 2 µM compound
  ΔTm: 1.0 ± 0.5 °C
[4]; [20]
  binding: no
[1]
  Kd1: 83 µM
[2]; [20]
  binding: no
[9]
  binding: no
[10]
  binding: no

## OC(c1cc(C(F)(F)F)nc2c(C(F)(F)F)cccc12)C1CCCCN1 (centres unmarked) [MQ, mefloquine]
[11]; CQ-resistant strain W2, 48 h incubation, mean of three independent experiments
  IC50: 16 ± 2 nM
[12]; CQ-sensitive strain 3D7, 48 h incubation, mean of three independent experiments
  IC50: 60 ± 3 nM
[13]; tested at 1 μM
  ΔTm FPf1T: 3.1 °C
[14]; tested at 1 μM
  ΔTm FPf8T: 6.6 °C
[15]; tested at 1 μM
  ΔTm F21T: 2.6 °C

## CN(C)CCCCCNCc1cc(-c2ccccc2)c2ccc3c(-c4ccccc4)cc(CNCCCCCN(C)C)nc3c2n1
[5]
  ΔTm: 18.8 ± 0.2 °C
[6]
  ΔTm: 20.5 ± 0.2 °C
[7]
  ΔTm: 14.7 ± 0.7 °C
[8]; 2 µM compound
  ΔTm: 18.1 ± 0.9 °C
[3]; 2 µM compound
  ΔTm: 1.8 ± 0.2 °C
[4]; site 1 of 2 (Kd2 24 µM)
  Kd1: 8 µM
[1]; site 1 of 2 (Kd2 16 µM)
  Kd1: 3 µM
[2]; site 1 of 2 (Kd2 62 µM)
  Kd1: 38 µM

## N=C(N)c1ccc(OCCCCCOc2ccc(C(=N)N)cc2)cc1 [Pentamidine, reference compound]
[16]
  IC50: 5500 ± 800 nM
[17]; SI = CC50 HepG2 / IC50 Trypanosoma brucei brucei
  Selectivity Index HepG2/Tryp.: 11,500
[17]; Trypanosoma brucei, slender bloodstream trypomastigotes, AnTat 1.9 strain, mean +/- SD of three independent experiments, read-out: Trypanosoma brucei brucei IC50 Values Trypanos Antat 1.9
  IC50: 0.2 ± 0.06 nM
Human HepG2 cells
  CC50: 2300 ± 500 nM

## C[n+]1cc(NC(=O)c2ccc3ccc4ccc(C(=O)Nc5cc6ccccc6[n+](C)c5)nc4c3n2)cc2ccccc21 [PhenDC3]
[18]
  ΔTm FtrypBT: 19.2 °C
[8]; 0.5 µM compound
  ΔTm: 26.3 ± 0.1 °C
[3]; 0.5 µM compound
  ΔTm: 0.1 ± 0.2 °C
[13]; tested at 0.5 μM
  ΔTm FPf1T: 24.6 °C
[14]; tested at 0.5 μM
  ΔTm FPf8T: 24.7 °C
[15]; tested at 0.5 μM
  ΔTm F21T: 26.3 °C
[19]
  ΔTm FdxT: 0.1 °C

## CCN(CC)CCCC(C)Nc1ccnc2cc(Cl)ccc12 (centres unmarked) [CQ, chloroquine]
[11]; W2, 48 h
  IC50: 400 ± 40 nM
[12]; 3D7, 48 h
  IC50: 110 ± 10 nM
[13]; tested at 1 μM
  ΔTm FPf1T: 1.9 °C
[14]; tested at 1 μM
  ΔTm FPf8T: 2.4 °C
[15]; tested at 1 μM
  ΔTm F21T: 2.4 °C
